In PubChem BioAssay (NCI):
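96-well plates; 48 h exposure; 5 concentrations. Endpoints by linear interpolation between flanking doses. Not reached: highest tested concentration assigned. TGI: concentration producing complete growth inhibition.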

Assays:
Assay in all cases: NCI-60 cell line screen, 48 h
COLO 205 colon = test system: COLO 205 colon
HCT-116 colon = test system: HCT-116 colon
MOLT-4 leukemia = test system: MOLT-4 leukemia
SR leukemia = test system: SR leukemia
SNB-78 CNS = test system: SNB-78 CNS
SK-OV-3 ovarian = test system: SK-OV-3 ovarian
NCI-H460 lung = test system: NCI-H460 lung
HS 578T breast = test system: HS 578T breast
HOP-92 NSCLC = test system: HOP-92 NSCLC
K-562 leukemia = test system: K-562 leukemia
MALME-3M melanoma = test system: MALME-3M melanoma
HL-60(TB) leukemia = test system: HL-60(TB) leukemia
NCI/ADR-RES ovarian = test system: NCI/ADR-RES ovarian
HT29 colon = test system: HT29 colon
EKVX NSCLC = test system: EKVX NSCLC
SN12C renal = test system: SN12C renal
DMS 114 small cell lung = test system: DMS 114 small cell lung
NCI-H226 lung = test system: NCI-H226 lung
HCT-15 colon = test system: HCT-15 colon
DLD-1 colon = test system: DLD-1 colon
HCC-2998 colon = test system: HCC-2998 colon
IGROV1 ovarian = test system: IGROV1 ovarian
SW-620 colon = test system: SW-620 colon
OVCAR-5 ovarian = test system: OVCAR-5 ovarian
CAKI-1 renal = test system: CAKI-1 renal
OVCAR-3 ovarian = test system: OVCAR-3 ovarian
LOX IMVI melanoma = test system: LOX IMVI melanoma
XF 498 CNS = test system: XF 498 CNS
UACC-257 melanoma = test system: UACC-257 melanoma
OVCAR-8 ovarian = test system: OVCAR-8 ovarian
LXFL 529 NSCLC = test system: LXFL 529 NSCLC
T-47D breast = test system: T-47D breast
SK-MEL-2 melanoma = test system: SK-MEL-2 melanoma
SF-268 CNS = test system: SF-268 CNS
MCF7 breast = test system: MCF7 breast
MDA-MB-435 = test system: MDA-MB-435
SF-539 CNS = test system: SF-539 CNS
BT-549 breast = test system: BT-549 breast
NCI-H23 lung = test system: NCI-H23 lung
A549 NSCLC = test system: A549 NSCLC
PC-3 prostate = test system: PC-3 prostate
M14 melanoma = test system: M14 melanoma
OVCAR-4 ovarian = test system: OVCAR-4 ovarian
ACHN renal = test system: ACHN renal
SF-295 CNS = test system: SF-295 CNS
MDA-MB-231 breast = test system: MDA-MB-231 breast
RPMI-8226 leukemia = test system: RPMI-8226 leukemia
UACC-62 melanoma = test system: UACC-62 melanoma
CCRF-CEM leukemia = test system: CCRF-CEM leukemia
NCI-H522 lung = test system: NCI-H522 lung
DU-145 prostate = test system: DU-145 prostate
SNB-75 CNS = test system: SNB-75 CNS
SNB-19 CNS = test system: SNB-19 CNS
A498 renal = test system: A498 renal
KM12 colon = test system: KM12 colon
TK-10 renal = test system: TK-10 renal
RXF 393 renal = test system: RXF 393 renal
SK-MEL-5 melanoma = test system: SK-MEL-5 melanoma
HOP-62 NSCLC = test system: HOP-62 NSCLC
U251 CNS = test system: U251 CNS
M19-MEL melanoma = test system: M19-MEL melanoma
HOP-18 NSCLC = test system: HOP-18 NSCLC
KM20L2 colon = test system: KM20L2 colon
DMS 273 small cell lung = test system: DMS 273 small cell lung
UO-31 renal = test system: UO-31 renal
786-0 renal = test system: 786-0 renal
SK-MEL-28 melanoma = test system: SK-MEL-28 melanoma

Compound: NC(N)=NS(=O)(=O)c1ccc(NC(=O)c2cccc3c(=O)c4ccccc4[nH]c23)cc1
- TGI (COLO 205 colon): > 100 µM
- TGI (HCT-116 colon): > 100 µM
- TGI (MOLT-4 leukemia): > 100 µM
- TGI (SR leukemia): > 100 µM
- TGI (SNB-78 CNS): > 100 µM
- TGI (SK-OV-3 ovarian): > 91.9 µM
- TGI (NCI-H460 lung): > 100 µM
- TGI (HS 578T breast): > 100 µM
- TGI (HOP-92 NSCLC): > 96.2 µM
- TGI (K-562 leukemia): > 56.2 µM
- TGI (MALME-3M melanoma): > 100 µM
- TGI (HL-60(TB) leukemia): > 100 µM
- TGI (NCI/ADR-RES ovarian): > 100 µM
- TGI (HT29 colon): > 100 µM
- TGI (EKVX NSCLC): > 100 µM
- TGI (SN12C renal): > 100 µM
- TGI (DMS 114 small cell lung): > 100 µM
- TGI (NCI-H226 lung): > 100 µM
- TGI (HCT-15 colon): > 100 µM
- TGI (DLD-1 colon): > 100 µM
- TGI (HCC-2998 colon): > 100 µM
- TGI (IGROV1 ovarian): > 100 µM
- TGI (SW-620 colon): > 100 µM
- TGI (OVCAR-5 ovarian): > 100 µM
- TGI (CAKI-1 renal): > 100 µM
- TGI (OVCAR-3 ovarian): > 100 µM
- TGI (LOX IMVI melanoma): > 100 µM
- TGI (XF 498 CNS): > 100 µM
- TGI (UACC-257 melanoma): > 100 µM
- TGI (OVCAR-8 ovarian): > 100 µM
- TGI (LXFL 529 NSCLC): > 100 µM
- TGI (T-47D breast): > 100 µM
- TGI (SK-MEL-2 melanoma): > 100 µM
- TGI (SF-268 CNS): > 100 µM
- TGI (MCF7 breast): > 100 µM
- TGI (MDA-MB-435): > 100 µM
- TGI (SF-539 CNS): > 100 µM
- TGI (BT-549 breast): > 100 µM
- TGI (NCI-H23 lung): > 100 µM
- TGI (A549 NSCLC): > 100 µM
- TGI (PC-3 prostate): > 100 µM
- TGI (M14 melanoma): > 100 µM
- TGI (OVCAR-4 ovarian): > 100 µM
- TGI (ACHN renal): > 100 µM
- TGI (SF-295 CNS): > 100 µM
- TGI (MDA-MB-231 breast): > 100 µM
- TGI (RPMI-8226 leukemia): > 100 µM
- TGI (UACC-62 melanoma): > 100 µM
- TGI (CCRF-CEM leukemia): > 31.6 µM
- TGI (NCI-H522 lung): > 100 µM
- TGI (DU-145 prostate): > 100 µM
- TGI (SNB-75 CNS): 51.3 µM
- TGI (SNB-19 CNS): > 100 µM
- TGI (A498 renal): > 100 µM
- TGI (KM12 colon): > 100 µM
- TGI (TK-10 renal): > 81.2 µM
- TGI (RXF 393 renal): > 80.3 µM
- TGI (SK-MEL-5 melanoma): > 100 µM
- TGI (HOP-62 NSCLC): > 100 µM
- TGI (U251 CNS): 69.2 µM
- TGI (M19-MEL melanoma): > 100 µM
- TGI (HOP-18 NSCLC): > 100 µM
- TGI (KM20L2 colon): > 100 µM
- TGI (DMS 273 small cell lung): > 100 µM
- TGI (UO-31 renal): > 100 µM
- TGI (786-0 renal): > 92.6 µM
- TGI (SK-MEL-28 melanoma): > 100 µM

Compound: CCCCCCc1cc2c(C)c(C)c(=O)oc2cc1OCCCOc1cc2oc(=O)c(C)c(C)c2cc1CCCCCC
- TGI (HCT-116 colon): > 100 µM
- TGI (MOLT-4 leukemia): > 100 µM
- TGI (SR leukemia): > 100 µM
- TGI (SNB-78 CNS): > 100 µM
- TGI (SK-OV-3 ovarian): > 100 µM
- TGI (NCI-H460 lung): > 100 µM
- TGI (HOP-92 NSCLC): > 100 µM
- TGI (K-562 leukemia): > 100 µM
- TGI (MALME-3M melanoma): > 100 µM
- TGI (HL-60(TB) leukemia): > 100 µM
- TGI (HT29 colon): > 100 µM
- TGI (EKVX NSCLC): > 100 µM
- TGI (DMS 114 small cell lung): > 100 µM
- TGI (HCT-15 colon): > 100 µM
- TGI (DLD-1 colon): > 100 µM
- TGI (IGROV1 ovarian): > 100 µM
- TGI (SW-620 colon): > 100 µM
- TGI (OVCAR-5 ovarian): > 100 µM
- TGI (CAKI-1 renal): > 100 µM
- TGI (OVCAR-3 ovarian): > 100 µM
- TGI (LOX IMVI melanoma): > 100 µM
- TGI (XF 498 CNS): > 100 µM
- TGI (UACC-257 melanoma): > 100 µM
- TGI (OVCAR-8 ovarian): > 100 µM
- TGI (LXFL 529 NSCLC): > 100 µM
- TGI (SK-MEL-2 melanoma): > 100 µM
- TGI (SF-268 CNS): > 100 µM
- TGI (SF-539 CNS): > 100 µM
- TGI (NCI-H23 lung): > 100 µM
- TGI (A549 NSCLC): > 100 µM
- TGI (M14 melanoma): > 100 µM
- TGI (SF-295 CNS): > 100 µM
- TGI (RPMI-8226 leukemia): > 100 µM
- TGI (UACC-62 melanoma): > 100 µM
- TGI (CCRF-CEM leukemia): > 100 µM
- TGI (NCI-H522 lung): > 100 µM
- TGI (SNB-19 CNS): > 100 µM
- TGI (A498 renal): > 100 µM
- TGI (KM12 colon): > 100 µM
- TGI (TK-10 renal): > 100 µM
- TGI (RXF 393 renal): > 100 µM
- TGI (SK-MEL-5 melanoma): > 100 µM
- TGI (HOP-62 NSCLC): > 100 µM
- TGI (U251 CNS): > 100 µM
- TGI (M19-MEL melanoma): > 100 µM
- TGI (HOP-18 NSCLC): > 100 µM
- TGI (KM20L2 colon): > 100 µM
- TGI (DMS 273 small cell lung): > 100 µM
- TGI (UO-31 renal): > 100 µM
- TGI (786-0 renal): > 100 µM
- TGI (SK-MEL-28 melanoma): > 100 µM
